{
  "source": "patent US20100034766A1",
  "about": "“Malodor Counteracting Compositions” (Givaudan SA, priority 2006, published 2010)",
  "key": {"[1]": {"test": "Malodor reduction potential: headspace GC/MS determination of hexyl amine remaining", "conditions": "for % Reduction of hexyl amine: 10 ul hexyl amine", "description": "A 1 liter glass headspace collection jar had placed inside it a 25 ml stoppered glass container which contained 0.5 g of a test compound/mixture of compounds as indicated in Table 3. 10 ul of hexyl amine as a representative malodor was injected into the headspace jar. This was left for 15 minutes at 25° C. to equilibrate. One ml/minute of the headspace was drawn for one minute through a Tenax™ headspace trap. The trap was removed and analyzed to determine the initial concentration of the malodor. The glass stopper was removed from the container and the test component and the malodor were left in contact for 60 minutes at 25° C. One ml/minute of the headspace was drawn for one minute through a Tenax™ headspace trap to determine the amount of malodor remaining. The Tenax traps were thermally desorbed into an Agilent 6890 GC/MS to analyze the quantity of hexyl amine. The results are shown in Table 3 below: Following the same procedure described in Example 1, compounds according to formula (B) were mixed with an equal amount of citronellyl methylcrotonate. 0.5 g of the resulting mixture was tested against 10 ul hexyl amine as a representative malodor. Following the same procedure described in Example 1,5-(1-(3,3-dimethyl-cyclohexyl)ethoxy)-5-methylhexan-2-one (compound 10) was mixed with an equal amount of compounds of formula (A). 0.5 g of the resulting mixture was tested against 10 ul hexyl amine as a representative malodor."}, "[2]": {"test": "Sensory test of axilla malodor reduction on cotton pads, expert panel, Labeled Magnitude Scale", "conditions": "Example 4, Table 6; 0.4 g of 10% ethanol solution of test mixture on pad with 0.5 g of 1% synthetic axilla malodor; expert panel of 5, LMS", "description": "Test mixtures of a compound of formula (A) and a compound of formula (B) in the ratio as given in Table 6 (10% ethanol solution) of each was prepared. 0.5 g of a 1% ethanol solution of synthetic axilla malodor was placed onto cotton pads. 0.4 g of the ethanol solution of the test mixtures, respectively, was placed on each axilla malodor treated cotton pad. One pad was left untreated as the control. Each pad was allowed to dry for 15 minutes. The test cotton pads were randomized, and an expert panel of 5 was used to determine the intensity of the malodor. Each panelist was asked to check a box that represented the strength of the axilla malodor using a Labeled Magnitude Scale (LMS) (Barry G. Green, Pamela Dalton, Beverly Cowart, Greg Shaffer, Krystyna Rankin and Jennifer Higgins. Evaluating the Labeled Magnitude Scale for Measuring Sensations of Taste and Smell. Chemical Senses. Vol. 21, pp 323-334, 1996).\nThe % reduction of malodor was calculated by:\n% Reduction=(Mean LMS Control−Mean LMS Test)/Mean LMS Control\nA Givaudan fragrance composition containing solvent dipropylene glycol at 20% (Composition A) and a fragrance composition (Composition B) wherein 10% dipropylene glycol are replaced by 10% of a mixture of compound 4 and geranyl:crotonate (1:9); were compared for MOC efficacy using the sensory test described in Example 4."}, "[3]": {"conditions": "Example 1, Table 3, 0.5 g test compound/mixture, 60 minutes contact at 25° C., headspace"}, "[4]": {"conditions": "Example 3, Table 5, compound 10 mixed with equal amount of formula (A) compounds, 0.5 g"}},
  "note": "Where a name gives a salt, the structure may show the parent alone.",
  "data": [
    {"molecule": "CCCCC(CC)COC(=O)C=Cc1ccc(OC)cc1", "note": "(stereo not drawn) [Octyl methyl cinnamate, 2-ethyl-hexyl-para-methoxy-cinnamate]", "values": [
      {"measurement": "% Reduction of hexyl amine", "setting": "[1]; [3]", "result": 54.1, "unit": "%"},
      {"measurement": "% Reduction of hexyl amine", "setting": "[1]; [4]", "result": 58.7, "unit": "%"}
    ]},
    {"molecule": "O=C(C=Cc1ccccc1)OCc1ccccc1", "note": "[benzyl cinnamate]", "values": [
      {"measurement": "% Reduction of hexyl amine", "setting": "[1]; [3]", "result": 23.5, "unit": "%"},
      {"measurement": "% Reduction of hexyl amine", "setting": "[1]; [4]", "result": 62.1, "unit": "%"}
    ]},
    {"molecule": "CC(C)=CCCC(C)CCOC(=O)C=C(C)C", "note": "(stereo not drawn) [citronellyl methylcrotonate, 3,7-dimethyloct-6-enyl 3-methylbut-2-enoate]", "values": [
      {"measurement": "% Reduction of hexyl amine", "setting": "[1]; [3]", "result": 53.6, "unit": "%"},
      {"measurement": "% Reduction of hexyl amine", "setting": "[1]; Example 2, Table 4, formula (B) compounds mixed with equal amount of citronellyl methylcrotonate, 0.5 g", "result": 61.3, "unit": "%"},
      {"measurement": "% Reduction of axilla malodor", "setting": "[2]", "result": 51.0, "unit": "%"}
    ]},
    {"molecule": "CC(OC(C)(C)COC(=O)C1CC1)C1CCCC(C)(C)C1", "note": "(stereo not drawn) [compound 4, cyclopropanecarboxylic acid 2-[1-(3,3-dimethylcyclohexyl)ethoxy]-2-methylpropyl ester]", "values": [
      {"measurement": "effect on the effectiveness of the class A compound (hexyl amine reduction)", "setting": "[1]; compound 4 in combination with a class A compound, Table 3", "result": "significantly increases the effectiveness"}
    ]},
    {"molecule": "CCCCCCOC(=O)/C=C/C(=O)OCCCCCC", "note": "[dihexyl fumarate]", "values": [
      {"measurement": "% Reduction of hexyl amine", "setting": "[1]; [3]", "result": 68.7, "unit": "%"},
      {"measurement": "% Reduction of hexyl amine", "setting": "[1]; [4]", "result": 78.1, "unit": "%"}
    ]},
    {"molecule": "C/C=C/C(=O)OC/C=C(\\C)CCC=C(C)C", "note": "[geranyl crotonate]", "values": [
      {"measurement": "% Reduction of hexyl amine", "setting": "[1]; [3]", "result": 64.7, "unit": "%"},
      {"measurement": "% Reduction of hexyl amine", "setting": "[1]; [4]", "result": 71.0, "unit": "%"}
    ]}
  ]
}
